Paper PMC9393165 (Scientific Reports, 2022)
Marks after values point to notes of the source that are not given here.

Assays:
[1] = Proportions of kidney transplant recipients with subtherapeutic or supratherapeutic tacrolimus trough concentration; format: in vivo, human
Experimental: All participants received oral, immediate-release tacrolimus (Prograf®; Astellas, Kerry, Ireland). According to Siriraj Hospital protocol, the initial dose (0.05 mg/kg every 12 h) of tacrolimus was started 2 days before KT (day − 2) and subsequently adjusted after KT based on efficacy and toxicity and to maintain morning trough concentrations of 7 to 10 ng/mL in standard risk patients and 10 to 12 ng/mL in high-risk patients during the first week after transplantation. Participants also received either mycophenolate mofetil (Cellcept®; F Hoffmann-La Roche Ltd, Basel, Switzerland or Immucept®; Intas Pharmaceuticals Ltd., Gujarat, India) or mycophenolate sodium (Myfortic®; Novartis Pharma Stein, Switzerland for Novartis AG, Basel, Switzerland) at the dosage equivalent to 2 g/day of mycophenolate mofetil. A tapered corticosteroid regimen was administered consisting of an intravenous bolus of 500 mg of methylprednisolone (Solu-medrol®; Novartis Pharma Stein, Switzerland for Novartis AG, Basel, Switzerland) on day 0, 250 mg on day 1, 125 mg on day 2 followed by 40 mg/day of prednisolone on day 4 after KT. The subsequent prednisolone doses were gradually tapered thereafter. Induction therapy with basiliximab (Simulect®; Novartis Pharma AG, Basel, Switzerland) was allowed.
On day 7 post-KT, after the tacrolimus dosage was stable for at least 48 h, venous blood samples (5 mL) were collected at pre-dose and 1, 2, 4, 6, 8 and 12 h after the morning dose of tacrolimus. Samples were collected in EDTA tubes and stored at 4 degrees Celsius until analysis. Whole blood tacrolimus concentrations were determined within the same day of blood collection by using a chemiluminescent microparticle immunoassay method with […] system® i2000 (Abbott, Abbott Diagnostic, USA). The method was linear in the concentration range up to 30 ng/mL, the limits of quantification were 0.8 ng/mL, and the coefficient of variation of within run precision and between run precision were less than 10%. Mean recovery was 100 ± 10% according to the manufacturer’s information.
The primary outcome measure was AUC/D at day 7 post-KT. […]

[2] = Clinical outcomes after kidney transplantation (hypotension, DGF, BPAR, post-transplant diabetes, tremor); format: in vivo, human
Experimental: For calculation of AUC/D and C0/D, values of AUC and C0 were dose-adjusted by dividing the observed values by the dose recorded on the day of blood collection. Early-morning blood pressures were measured on the same day of blood collection for pharmacokinetic analysis by a ward nurse as part of a routine examination, during rest in a seated position with a calibrated and well-maintained automatic sphygmomanometer. Delayed graft function (DGF) was defined as failure of the kidney graft to function immediately, with the need for dialysis in the first 7 days post-KT. Episode of biopsy-proven acute rejection (BPAR) during 3 months post-KT was diagnosed based on histologic findings in indication kidney graft biopsy according to Banff 2015 criteria.

[3] = day 1 post-transplantation, CYP3A5 expressers, diltiazem (n = 11)
[4] = day 1 post-transplantation, CYP3A5 expressers, placebo (n = 12)
[5] = day 1 post-transplantation, CYP3A5 non-expressers, diltiazem (n = 9)
[6] = day 1 post-transplantation, CYP3A5 non-expressers, placebo (n = 8)
[7] = day 1 post-transplantation, total (n = 40)
[8] = day 3 post-transplantation, CYP3A5 expressers, diltiazem (n = 11)
[9] = day 3 post-transplantation, CYP3A5 expressers, placebo (n = 12)
[10] = day 3 post-transplantation, CYP3A5 non-expressers, diltiazem (n = 9)
[11] = day 3 post-transplantation, CYP3A5 non-expressers, placebo (n = 8)
[12] = day 3 post-transplantation, total (n = 40)
[13] = day 5 post-transplantation, CYP3A5 expressers, diltiazem (n = 11)
[14] = day 5 post-transplantation, CYP3A5 expressers, placebo (n = 12)
[15] = day 5 post-transplantation, CYP3A5 non-expressers, diltiazem (n = 9)
[16] = day 5 post-transplantation, CYP3A5 non-expressers, placebo (n = 8)
[17] = day 5 post-transplantation, total (n = 40)
[18] = day 7 post-transplantation, CYP3A5 expressers, diltiazem (n = 11)
[19] = day 7 post-transplantation, CYP3A5 expressers, placebo (n = 12)
[20] = day 7 post-transplantation, CYP3A5 non-expressers, diltiazem (n = 9)
[21] = day 7 post-transplantation, CYP3A5 non-expressers, placebo (n = 8)
[22] = day 7 post-transplantation, total (n = 40)

## C=CC[C@@H]1/C=C(\C)C[C@H](C)C[C@H](OC)[C@H]2O[C@@](O)(C(=O)C(=O)N3CCCC[C@H]3C(=O)O[C@H](/C(C)=C/[C@@H]3CC[C@@H](O)[C@H](OC)C3)[C@H](C)[C@@H](O)CC1=O)[C@H](C)C[C@@H]2OC [Tacrolimus]
[1]; [3]
  Trough concentration higher than 15 ng/mL: 1 (9.1) n (%)
  Trough concentration lower than 5 ng/mL: 0 (0) n (%)
  Trough concentration lower than the target range: 1 (9.1) n (%)
[1]; [4]
  Trough concentration higher than 15 ng/mL: 0 (0) n (%)
  Trough concentration lower than 5 ng/mL: 4 (33.3) n (%)
  Trough concentration lower than the target range: 7 (58.3) n (%)
[1]; [5]
  Trough concentration higher than 15 ng/mL: 3 (33.3) n (%)
  Trough concentration lower than 5 ng/mL: 1 (11.1) n (%)
  Trough concentration lower than the target range: 2 (22.2) n (%)
[1]; [6]
  Trough concentration higher than 15 ng/mL: 3 (37.5) n (%)
  Trough concentration lower than 5 ng/mL: 1 (12.5) n (%)
  Trough concentration lower than the target range: 2 (25.0) n (%)
[1]; [7]
  Trough concentration higher than 15 ng/mL: 7 (17.5) n (%)
  Trough concentration lower than 5 ng/mL: 6 (15.0) n (%)
  Trough concentration lower than the target range: 12 (30.0) n (%)
[1]; day 3 post-transplantation, CYP3A5 expressers, diltiazem (EXdtz, n = 11)
  Trough concentration lower than 5 ng/mL: 1 (9.1) n (%)
[1]; day 3 post-transplantation, CYP3A5 expressers, diltiazem (EXdtz, n = 11), listed as tacrolimus
  Trough concentration lower than 5 ng/mL: one
[1]; [8]
  Trough concentration higher than 15 ng/mL: 0 (0) n (%)
  Trough concentration lower than the target range: 2 (18.2)^b n (%)
[1]; day 3 post-transplantation, CYP3A5 expressers, placebo (EXplb, n = 12)
  Trough concentration lower than 5 ng/mL: 4 (33.3) n (%)
[1]; day 3 post-transplantation, CYP3A5 expressers, placebo (EXplb, n = 12), listed as tacrolimus
  Trough concentration lower than 5 ng/mL: four
[1]; [9]
  Trough concentration higher than 15 ng/mL: 0 (0) n (%)
  Trough concentration lower than the target range: 8 (66.7) n (%)
[1]; day 3 post-transplantation, CYP3A5 non-expressers, diltiazem (NEdtz, n = 9)
  Trough concentration lower than 5 ng/mL: 0 (0) n (%)
[1]; day 3 post-transplantation, CYP3A5 non-expressers, diltiazem (NEdtz, n = 9), listed as tacrolimus
  Trough concentration lower than 5 ng/mL: none
[1]; [10]
  Trough concentration higher than 15 ng/mL: 0 (0) n (%)
  Trough concentration lower than the target range: 0 (0)^b n (%)
[1]; day 3 post-transplantation, CYP3A5 non-expressers, placebo (NEplb, n = 8)
  Trough concentration lower than 5 ng/mL: 0 (0) n (%)
[1]; day 3 post-transplantation, CYP3A5 non-expressers, placebo (NEplb, n = 8), listed as tacrolimus
  Trough concentration lower than 5 ng/mL: none
[1]; [11]
  Trough concentration higher than 15 ng/mL: 1 (12.5) n (%)
  Trough concentration lower than the target range: 0 (0)^b n (%)
[1]; [12]
  Trough concentration higher than 15 ng/mL: 1 (2.5) n (%)
  Trough concentration lower than 5 ng/mL: 5 (12.5) n (%)
  Trough concentration lower than the target range: 10 (25.0) n (%)
[1]; [13]
  Trough concentration higher than 15 ng/mL: 0 (0) n (%)
  Trough concentration lower than 5 ng/mL: 1 (9.1) n (%)
  Trough concentration lower than the target range: 7 (63.6) n (%)
[1]; [14]
  Trough concentration higher than 15 ng/mL: 0 (0) n (%)
  Trough concentration lower than 5 ng/mL: 1 (8.3) n (%)
  Trough concentration lower than the target range: 7 (58.3) n (%)
[1]; [15]
  Trough concentration higher than 15 ng/mL: 0 (0) n (%)
  Trough concentration lower than 5 ng/mL: 0 (0) n (%)
  Trough concentration lower than the target range: 2 (22.2) n (%)
[1]; [16]
  Trough concentration higher than 15 ng/mL: 0 (0) n (%)
  Trough concentration lower than 5 ng/mL: 2 (25.0) n (%)
  Trough concentration lower than the target range: 2 (25.0) n (%)
[1]; [17]
  Trough concentration higher than 15 ng/mL: 0 (0) n (%)
  Trough concentration lower than 5 ng/mL: 4 (10.0) n (%)
  Trough concentration lower than the target range: 18 (45.0) n (%)
[1]; [18]
  Trough concentration higher than 15 ng/mL: 0 (0) n (%)
  Trough concentration lower than 5 ng/mL: 0 (0) n (%)
  Trough concentration lower than the target range: 6 (54.5) n (%)
[1]; [19]
  Trough concentration higher than 15 ng/mL: 0 (0) n (%)
  Trough concentration lower than 5 ng/mL: 0 (0) n (%)
  Trough concentration lower than the target range: 1 (8.3) n (%)
[1]; [20]
  Trough concentration higher than 15 ng/mL: 0 (0) n (%)
  Trough concentration lower than 5 ng/mL: 0 (0) n (%)
  Trough concentration lower than the target range: 3 (33.3) n (%)
[1]; [21]
  Trough concentration higher than 15 ng/mL: 0 (0) n (%)
  Trough concentration lower than 5 ng/mL: 0 (0) n (%)
  Trough concentration lower than the target range: 2 (25.0) n (%)
[1]; [22]
  Trough concentration higher than 15 ng/mL: 0 (0) n (%)
  Trough concentration lower than 5 ng/mL: 0 (0) n (%)
  Trough concentration lower than the target range: 12 (30.0) n (%)
[2]; during 3 months after transplantation, 40 KTRs
  Tremor: No study patients reported tremor
[2]; during 3 months after transplantation, 40 KTRs on tacrolimus-based regimen, one in EXdtz, one in NEplb
  Biopsy-proven acute rejection (BPAR): 5%
[2]; during 3 months after transplantation, 40 KTRs, one in EXplb, one in EXdtz
  Post-transplant diabetes mellitus: 5%
[2]; first week post-KT, 40 KTRs on tacrolimus-based regimen
  DGF, suspected rejection, or BPAR: None
